Measurements published in publication PMC12638379, “An innovative approach to development of new pyrazolylquinolin-2-one hybrids as dual EGFR and BRAF^V600E inhibitors” (Molecular Diversity, 2025).
Read-outs that look alike come from different tables or passages of the source.

How the values were obtained:
[1] = target: BRAF^V600E (Homo sapiens, UniProt P15056, V600E); assay: BRAF^V600E inhibitory assay (B-Raf (V600E) Kinase Assay); format: biochemical; details: read-out: BRAF^V600E inhibition IC50 ± SEM
Chain of BRAF^V600E (P15056 whole entry V600E): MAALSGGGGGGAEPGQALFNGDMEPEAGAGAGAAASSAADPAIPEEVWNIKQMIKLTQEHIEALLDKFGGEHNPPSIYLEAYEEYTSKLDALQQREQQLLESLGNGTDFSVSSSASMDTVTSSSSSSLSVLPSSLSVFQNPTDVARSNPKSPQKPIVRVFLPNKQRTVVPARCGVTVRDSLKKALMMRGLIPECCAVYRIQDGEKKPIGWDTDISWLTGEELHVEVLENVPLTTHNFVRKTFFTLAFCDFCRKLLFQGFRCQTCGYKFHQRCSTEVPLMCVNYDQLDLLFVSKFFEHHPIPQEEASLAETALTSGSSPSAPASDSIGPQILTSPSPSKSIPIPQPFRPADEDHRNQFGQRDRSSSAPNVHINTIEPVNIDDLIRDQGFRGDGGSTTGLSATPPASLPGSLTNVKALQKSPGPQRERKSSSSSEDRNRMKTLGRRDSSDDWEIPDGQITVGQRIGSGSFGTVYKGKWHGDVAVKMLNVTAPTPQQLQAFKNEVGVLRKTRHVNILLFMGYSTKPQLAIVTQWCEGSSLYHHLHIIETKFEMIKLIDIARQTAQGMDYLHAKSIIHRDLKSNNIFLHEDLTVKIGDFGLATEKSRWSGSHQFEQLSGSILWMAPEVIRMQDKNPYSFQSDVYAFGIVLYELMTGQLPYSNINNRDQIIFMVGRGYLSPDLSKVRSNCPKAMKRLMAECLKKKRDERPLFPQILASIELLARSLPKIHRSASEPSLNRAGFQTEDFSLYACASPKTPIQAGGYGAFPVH

[2] = system: lung cancer (HOP-92) cell line; assay: MTT antiproliferative assay, HOP-92; format: cell-based, human; details: for viability at 0.4 µM / viability at 1.6 µM / viability at 6.3 µM / viability at 25 µM / viability at 100 µM / IC50: Homo sapiens; for viability at 0.4 µM / viability at 1.6 µM / viability at 6.3 µM / viability at 25 µM / viability at 100 µM: HOP-92, HOP-92, MTT
Description: […]. […] See Appendix B.
After 24 h of culture incubation and supernatants discarded.

[3] = system: caspase-9; assay: Caspase-9 level in HOP-92 cells (RT-PCR fold change); format: cell-based, human; details: for Gene Expression FLD 2^ ΔΔCT Casp9: vs GAPDH, E=1.869, control = 1
Description: (§1) In the depicted findings, compound 4e affected Bcl-2, caspase-3, and caspase-9, increasing the expression of caspase-3/9 and decreasing the expression of Bcl-2, confirming the apoptotic status.
(§2) Researcher : Dr.Mohamed Hawas email: mohhawwas80@gmail.com mob. 01151345909 Assay : Cell Cycle Analysis mohamedhassan.pharm.ast@azhr.edu.eg Assay : RT-PCR Samples : 02 SamplesCell lines : ----Ref. : ----Date : 12-06-2023Reader : Rotorgene RT- PCR system Kit used : Qiagen RNA extraction/BioRad syber green PCR MMXSolvent : DMSOAssay samples : Cell Lysate
Cells were obtained from American Type Culture Collection, cells were grown in RPMI 1640 containing 10% fetal bovine serum at 37°C, stimulated with the compounds to be tested […], and lysed with Cell Extraction Buffer. This lysate was diluted in Standard Diluent Buffer over the range of the assay and measured for human active caspase-8 or 9 content. […] The absorbance of each microwell was read on a spectro-photometer at 450 nm. A standard curve is prepared from 7 human Caspases standard dilutions and human Caspase-8 or 9 concentration determined.

[4] = system: Bcl-2; assay: Bcl-2 level in HOP-92 cells (RT-PCR fold change); format: cell-based, human; details: for Gene Expression FLD 2^ ΔΔCT bcl2: vs GAPDH, E=1.869, control = 1
Description: as §1, §2
Mix all reagents thoroughly without foaming before use. Wash the microwells twice with approximately 300 μL Wash Buffer per well with thorough aspiration of microwell contents between washes. Take caution not to scratch the surface of the microwells. After the last wash, empty the wells and tap microwell strips on absorbent pad or paper towel to remove excess Wash Buffer. Use the microwell strips immediately after washing or place upside down on a wet absorbent paper for not longer than 15 minutes. […] Add 100 μL of Sample Diluent in duplicate to all standard wells and to the blank wells. Prepare standard (1:2 dilution) in duplicate ranging from 32 ng/mL to 0.5 ng/mL. Add 100 μL of Sample Diluent, in duplicate, to the blank wells. Add 80 μL of Sample Diluent, in duplicate, to the sample wells. Add 20 μL of each Sample, in duplicate, to the designated wells. Add 50 μL of diluted biotin-conjugate to all wells, including the blank wells. […] The point, at which the substrate reaction is stopped, is often determined by the ELISA reader. Many ELISA readers record absorbance only up to 2.0 O.D. Therefore, the color development within individual microwells must be watched by the person running the assay and the substrate reaction stopped before positive wells are no longer properly detectable. […] Results must be read immediately after the Stop Solution is added or within one hour if the microwell strips are stored at 2 - 8°C in the dark. Read absorbance of each microwell on a spectrophotometer using 450 nm as the primary wave length.

[5] = system: caspase-3; assay: Caspase-3 level in HOP-92 cells (RT-PCR fold change); format: cell-based, human; details: for Gene Expression FLD 2^ ΔΔCT Casp3: vs GAPDH, E=1.869, control = 1
Description: as §1, §2
Allow all reagents to reach room temperature before use. Gently mix all liquidreagents prior to use. Determine the number of 8-well strips needed for the assay. Insert these in the frame(s) for current use. Add 100 μl of the Standard Diluent Buffer to the zero standard wells. Well(s) reserved for chromogen blank should be left empty. Add 100 μl of standards and controls or diluted samples to the appropriate microtiter wells. The sample dilution chosen should be optimized for each experimental system. Tap gently on side of plate to mix. Cover wells with plate cover and incubate for 2 hours at room temperature. Thoroughly aspirate or decant solution from wells and discard the liquid, Wash wells 4 times. Pipette 100 μl of Caspase-3 (Active) Detection Antibody solution into each well except the chromogen blank(s). Tap gently on the side of the plate to mix. Cover plate with plate cover and incubate for 1 hour at room temperature. Thoroughly aspirate or decant solution from wells and discard the liquid, Wash wells 4 times. Add 100 μl Anti-Rabbit IgG HRP Working Solution to each well except the chromogen blank(s). Prepare the working dilution as described in Preparing IgG HRP. Cover wells with the plate cover and incubate for 30 minutes at room temperature. Thoroughly aspirate or decant solution from wells and discard the liquid. Wash wells 4 times. Add 100 μl of Stabilized Chromogento each well. The liquid in the wells will begin to turn blue. Incubate for 30 minutes at room temperature and in the dark. The incubation time for chromogen substrate is often determined by the microtiter platereader used. Many plate readers have the capacity to record a maximum optical density (O.D.) of 2.0. The O.D. values should be monitored and the substrate reaction stopped before the O.D. of the positive wells exceeds the limits of the instrument. The O.D. values at 450 nm can only be read after the Stop Solution has been added to each well. […] Read the absorbance of each well at 450 nm having blanked the plate reader against a chromogen blank composed of 100 μl each of StabilizedChromogenand Stop Solution. Read the plate within 2 hours after adding the Stop Solution. […] Read the concentrations for unknown samples and controls from the standard curve. […]

[6] = in vitro; details: human, % viability
[7] = HOP-92, MTT, read-out: Antiproliferative activity IC50 ± SEM, HOP-92

C/C(=N\Nc1ccc(S(N)(=O)=O)cc1)c1cnn(-c2cc(=O)[nH]c3ccc(Cl)cc23)c1C [Compound 4d, (E)-4-(2-(1-(1-(6-chloro-2-oxo-1,2-dihydroquinolin-4-yl)-5-methyl-1H-pyrazol-4-yl)ethylidene)hydrazineyl)benzenesulfonamide]
IC50 [1]: 0.249 ± 0.01 µM | % viability ([2]; HOP-92, MTT, 0.4uM, listed as Ws4, 0.4 µM): 85.21% | % viability ([2]; HOP-92, MTT, 1.6uM, listed as Ws4, 1.6 µM): 75.93% | % viability ([2]; HOP-92, MTT, 6.3uM, listed as Ws4, 6.3 µM): 64.52% | % viability ([2]; HOP-92, MTT, 25uM, listed as Ws4, 25 µM): 52.12% | % viability ([2]; HOP-92, MTT, 100uM, listed as Ws4, 100 µM): 42.18% | viability at 0.4 µM ([2]; 0.4uM, read-out: % viability): 85.2% | viability at 1.6 µM ([2]; 1.6uM, read-out: % viability): 75.9% | viability at 6.3 µM ([2]; 6.3uM, read-out: % viability): 64.5% | viability at 25 µM ([2]; 25uM, read-out: % viability): 52.1% | viability at 100 µM ([2]; 100uM, read-out: % viability): 42.2% | IC50 [2, 7]: 36.5 ± 1.46 µM

C/C(=N\Nc1ccc(S(N)(=O)=O)cc1)c1cnn(-c2cc(=O)[nH]c3ccc(Br)cc23)c1C [Compound 4e, (E)-4-(2-(1-(1-(6-bromo-2-oxo-1,2-dihydroquinolin-4-yl)-5-methyl-1H-pyrazol-4-yl)ethylidene)hydrazineyl)benzenesulfonamide]
RT-PCR Fold Change FLD Casp9 ([3]; control = 1): 3.082 | Gene Expression FLD 2^ ΔΔCT Casp9 [3]: 3.0825 | RT-PCR Fold Change Casp-9 ([3]; vs untreated control): 3.082 fold | IC50 [1]: 0.068 ± 0.003 µM | RT-PCR Fold Change FLD Bcl2 ([4]; control = 1): 0.299 | Gene Expression FLD 2^ ΔΔCT bcl2 [4]: 0.2991 | % viability ([2]; HOP-92, MTT, 0.4uM, listed as Ws5, 0.4 µM): 71.413% | % viability ([2]; HOP-92, MTT, 1.6uM, listed as Ws5, 1.6 µM): 60.375% | % viability ([2]; HOP-92, MTT, 6.3uM, listed as Ws5, 6.3 µM): 47.848% | % viability ([2]; HOP-92, MTT, 25uM, listed as Ws5, 25 µM): 34.437% | viability at 0.4 µM ([2]; 0.4uM, read-out: % viability): 71.4% | viability at 1.6 µM ([2]; 1.6uM, read-out: % viability): 60.4% | viability at 6.3 µM ([2]; 6.3uM, read-out: % viability): 47.9% | viability at 25 µM ([2]; 25uM, read-out: % viability): 34.4% | viability at 100 µM ([2]; 100uM, read-out: % viability): 26.5% | IC50 ([2]; HOP-92, HOP-92, concentration used in RT-PCR, read-out: IC50): 4.98 µM | IC50 ([2]; HOP-92, HOP-92, concentration used in apoptosis assay, read-out: Conc IC50): 4.98 µM | IC50 ([2]; HOP-92, HOP-92, concentration used in cell cycle analysis, read-out: IC50): 4.98 µM | IC50 [2, 7]: 4.98 ± 0.2 µM | RT-PCR Fold Change FLD Casp3 ([5]; control = 1): 4.716 | Gene Expression FLD 2^ ΔΔCT Casp3 [5]: 4.7162 | RT-PCR Fold Change Casp-3 ([5]; vs untreated control): 4.716 fold

C/C(=N\Nc1ccc(C(=O)O)cc1)c1cnn(-c2cc(=O)[nH]c3ccccc23)c1C [Compound 4f, (E)-4-(2-(1-(5-methyl-1-(2-oxo-1,2-dihydroquinolin-4-yl)-1H-pyrazol-4-yl)ethylidene) hydrazineyl)benzoic acid]
IC50 [1]: 0.41 ± 0.016 µM | % viability ([2]; HOP-92, MTT, 0.4uM, listed as ws6, 0.4 µM): 83.3554% | % viability ([2]; HOP-92, MTT, 1.6uM, listed as ws6, 1.6 µM): 74.4032% | % viability ([2]; HOP-92, MTT, 6.3uM, listed as ws6, 6.3 µM): 64.3236% | % viability ([2]; HOP-92, MTT, 100uM, listed as ws6, 100 µM): 35.3448% | viability at 0.4 µM ([2]; 0.4uM, read-out: % viability): 83.4% | viability at 1.6 µM ([2]; 1.6uM, read-out: % viability): 74.4% | viability at 6.3 µM ([2]; 6.3uM, read-out: % viability): 64.3% | viability at 25 µM ([2]; 25uM, read-out: % viability): 51.8% | viability at 100 µM ([2]; 100uM, read-out: % viability): 35.3% | IC50 [2, 7]: 24.9 ± 1.9 µM

C/C(=N\Nc1ccc(C(=O)O)cc1)c1cnn(-c2cc(=O)[nH]c3ccc(C)cc23)c1C [Compound 4g, (E)-4-(2-(1-(5-methyl-1-(6-methyl-2-oxo-1,2-dihydroquinolin-4-yl)-1H-pyrazol-4-yl)ethylidene)hydrazineyl)benzoic acid]
IC50 [1]: 0.194 ± 0.008 µM | % viability ([2]; HOP-92, MTT, 25uM, listed as Ws7, 25 µM): 48.02% | % viability ([2]; HOP-92, MTT, 100uM, listed as Ws7, 100 µM): 33.71% | viability at 0.4 µM ([2]; 0.4uM, read-out: % viability): 78% | viability at 1.6 µM ([2]; 1.6uM, read-out: % viability): 67% | viability at 6.3 µM ([2]; 6.3uM, read-out: % viability): 56.5% | viability at 25 µM ([2]; 25uM, read-out: % viability): 48% | viability at 100 µM ([2]; 100uM, read-out: % viability): 33.7% | IC50 [2, 7]: 14.7 ± 0.66 µM

CN[C@@H]1C[C@H]2O[C@@](C)([C@@H]1OC)n1c3ccccc3c3c4c(c5c6ccccc6n2c5c31)C(=O)NC4 [Staurosporine, reference compound]
Gene Expression FLD 2^ ΔΔCT Casp9 [3]: 5.5143 | Gene Expression FLD 2^ ΔΔCT bcl2 [4]: 0.3265 | viability at 0.4 µM [6]: 84.6% | viability at 6.3 µM [6]: 56.2% | viability at 25 µM [6]: 46.8% | viability at 1.6 µM ([6]; WI38, 1.6uM (log conc. 0.19)): 68.1% | viability at 100 µM ([6]; WI38, 100uM (log conc. 2)): 37.4% | % viability ([2]; HOP-92, MTT, 0.4uM, listed as STA): 69.37% | % viability ([2]; HOP-92, MTT, 1.6uM, listed as STA): 61.2% | % viability ([2]; HOP-92, MTT, 6.3uM, listed as STA): 43.16% | % viability ([2]; HOP-92, MTT, 100uM, listed as STA): 17.16% | viability at 0.4 µM ([2]; 0.4uM): 69.4% | viability at 1.6 µM ([2]; 1.6uM): 61.2% | viability at 6.3 µM ([2]; 6.3uM): 43.2% | viability at 25 µM ([2]; 25uM): 24.7% | viability at 100 µM ([2]; 100uM): 17.2% | IC50 [2, 7]: 3.17 ± 0.19 µM | IC50 ([2]; HOP-92, concentration used in RT-PCR, read-out: IC50): 3.17 µM | Gene Expression FLD 2^ ΔΔCT Casp3 [5]: 6.9067
